Experimental findings from patent US8440648B2, “Methods and compositions for treatment of intraepithelial neoplasia” (Erimos Pharmaceuticals LLC, priority 2004, dated 2013) are described below.

Each structure is given as a SMILES string.

Data set [1] deals with women with Cervical Intraepithelial Neoplasia. Kind of data set: Pilot clinical trial of intravaginal M4N: systemic and local toxicity. Format: in vivo. The source says: (§1) This study was designed to look at the systemic and local toxicity of tetra-O-methyl NDGA (M4N) administered intravaginally to women once a week for three weeks. Patients, at the time of screening, had visible cervical lesions, were HPV positive, and had previous biopsy confirmed Cervical Intraepithelial Neoplasia (CIN). Cervical biopsies were taken at Day 1 and follow up biopsies were taken at Day 71. Five patients have been enrolled in the study, and three patients have completed the study through Day 71.
(§2) The first four patients received 5 mL of a 1% formulation of M4N in white petrolatum once weekly for each of three weekly doses. […] One patient received 5 mL of a 2% M4N formulation in white petrolatum at each of two weekly doses to date. […] The relationship to the study drug administration is unknown.

Data set [2] is described as follows: Serum levels of M4N in the fourteen day rabbit intravaginal study. The format is in vivo, New Zealand White rabbits. The note with it: M4N 20 mg/g in white petrolatum, 1 mL intravaginally daily, rabbits; levels inconsistent, minimal absorption. The protocol: Fourteen Day Rabbit Intravaginal Topical Toxicology Study. […] Ten female rabbits (5 per group) were dosed.

Data set [3] deals with Cervical Intraepithelial Neoplasia (CIN). Kind of data set: Pilot clinical trial of intravaginal M4N: preliminary efficacy from cervical biopsies. Format: in vivo, women. As to conditions: three patients, 3 weekly doses of 1% M4N in white petrolatum.
Description: as §1
Preliminary efficacy data was collected from cervical biopsies at Day 1 and Day 71 from the three patients that completed the Day 71 visit after receiving 3 doses of the 1% formulation of M4N.

Data set [4] has as its system New Zealand White rabbits. Nature of the data set: Fourteen day rabbit intravaginal topical toxicology study (local and systemic toxicity). As to conditions: M4N 20 mg/g in white petrolatum.
Description: This study was designed to look at the local and systemic toxicity of tetra-O-methyl NDGA (M4N) administered intravaginally in New Zealand White rabbits for 14 days. Rabbits were dosed daily with 1 mL of a white petrolatum formulation of M4N (20 mg/g) or placebo. Ten female rabbits (5 per group) were dosed. Local effects of drug were scored using the Draize scoring system daily, and gross pathology and histopathology was obtained at necropsy on termination of the dosing period.
The nature of data set [5]: Pilot clinical trial of intravaginal M4N: serum levels. Format: in vivo. The note with it: after intravaginal administration of the 1% formulation in white petrolatum, women.
Description: as §1, §2

Where [6] appears, read: 1 mL intravaginally daily for 14 days.

As for `COc1ccc(C[C@@H](C)[C@@H](C)Cc2ccc(OC)c(OC)c2)cc1OC` [M4N, meso-1,4-bis(3,4-dimethoxyphenyl)-2,3-dimethylbutane], the Irritation or toxicity entry in data set [1] (5 mL of 1% M4N in white petrolatum intravaginally once weekly, three doses, four patients) is “No irritation or toxicity was reported”. Also, the “Vaginal irritation or toxicity” value in data set [1] (5 mL of 2% M4N in white petrolatum intravaginally, two weekly doses, one patient) is given as “No vaginal irritation or toxicity was reported”. Besides, the Vulvar irritation result in data set [1] (5 mL of 2% M4N in white petrolatum intravaginally, two weekly doses, one patient, relationship to drug unknown) is given as “minor vulvar irritation was reported”. Also, the “Serum level at peak concentration” value in data set [2] is listed as “less than 10 ng/mL”. The “Response in cervical biopsies, Day 71 versus Day 1” value in data set [3] was “one patient had a complete response, one patient had a partial response, and one patient showed disease progression”. In addition, in data set [4] (setting [6]), the “Vaginal observations: mild edema, animals affected” value was 2/5 and the “Vaginal observations: mild erythema, animals affected” value was 3/5. The “Survival until scheduled termination” value in data set [4] (1 mL intravaginally daily for 14 days, rabbits) is on record as “All animals survived until scheduled termination”. The “Vaginal observations: minimal edema, animals affected” value in data set [4] (1 mL intravaginally daily for 14 days, control 2/5) is given as 1/5. For the same molecule, the “Weekly clinical and twice daily cage-side observations” value in data set [4] (intravaginally daily for 14 days) is “No findings were noted”. The Clinical pathology findings result in data set [4] (intravaginally daily for 14 days, considered incidental) is “lower absolute basophil counts, and ALT values”. Moreover, the Histopathology findings result in data set [4] (intravaginally daily for 14 days, relation to drug unknown) is “in one M4N-treated rabbit, heterophil infiltrates were seen in the vaginal mucosa”. Further, the Serum levels entry in data set [5] was “below limit of quantification”.
